From ChEMBL document CHEMBL3045231, “Synthesis and insecticidal activity of new pyrethroids” (2009)

Legend:
Format in all cases: functional
Tuta absoluta [1] = assay: Insecticidal activity against second-instar larval stage of Tuta absoluta assessed as mortality at 5 ug/mg applied topically on thoracic tergite after 24 hr (reference value: 1.7%)
Periplaneta americana [2] = assay: Insecticidal activity against second-instar nymph stage of Periplaneta americana (American cockroach) assessed as mortality at 5 ug/mg applied topically on thoracic tergite after 12 hr (reference value: 1.7%)
Sitophilus zeamais [3] = assay: Insecticidal activity against […] Sitophilus zeamais assessed as mortality at 5 ug/mg applied topically on thoracic tergite after 12 hr relative to control
Musca domestica [4] = assay: Insecticidal activity against second-instar larval stage of Musca domestica (house fly) assessed as mortality at 5 ug/mg applied topically on thoracic tergite after 24 hr relative to control
Ascia monuste [5] = assay: Insecticidal activity against second-instar larval stage of Ascia monuste orseis assessed as mortality at 5 ug/mg applied topically on thoracic tergite after 12 hr relative to control
Musca domestica [6] = assay: Insecticidal activity against second-instar larval stage of Musca domestica (house fly) assessed as mortality at 5 ug/mg applied topically on thoracic tergite after 12 hr relative to control
Periplaneta americana [7] = assay: Insecticidal activity against second-instar nymph stage of Periplaneta americana (American cockroach) assessed as mortality at 5 ug/mg applied topically on thoracic tergite after 24 hr (reference value: 1.7%)
Sitophilus zeamais [8] = assay: Insecticidal activity against […] Sitophilus zeamais assessed as mortality at 5 ug/mg applied topically on thoracic tergite after 24 hr relative to control
Ascia monuste [9] = assay: Insecticidal activity against second-instar larval stage of Ascia monuste orseis assessed as mortality at 5 ug/mg applied topically on thoracic tergite after 24 hr (reference value: 1.7%)
Tuta absoluta [10] = assay: Insecticidal activity against second-instar larval stage of Tuta absoluta assessed as mortality at 5 ug/mg applied topically on thoracic tergite after 12 hr (reference value: 1.7%)

SMILES	mortality (Tuta absoluta [1]) [%]	mortality (Periplaneta americana [2]) [%]	mortality (Sitophilus zeamais [3]) [%]	mortality (Musca domestica [4]) [%]	mortality (Ascia monuste [5]) [%]	mortality (Musca domestica [6]) [%]	mortality (Periplaneta americana [7]) [%]	mortality (Sitophilus zeamais [8]) [%]	mortality (Ascia monuste [9]) [%]	mortality (Tuta absoluta [10]) [%]
COC(=O)[C@H]1[C@H](/C=C/c2ccc(Br)cc2)C1(C)C	25	55	0	22.5	5	12.5	65	0	85	15
COC(=O)[C@H]1[C@H](/C=C\c2ccc(Cl)cc2)C1(C)C	100	92.5	0	25	85	20	100	0	90	100
COC(=O)[C@H]1[C@H](/C=C/c2ccc(Cl)cc2)C1(C)C	72.5	87.5	0	22.5	80	17.5	95	0	82.5	67.5
COC(=O)[C@H]1[C@H](/C=C\c2ccc(F)cc2)C1(C)C	90	65	7.5	15	67.5	12.5	67.5	10	92.5	87.5
COC(=O)[C@H]1[C@H](/C=C/c2ccc(F)cc2)C1(C)C	77.5	62.5	5	15	65	10	67.5	7.5	90	60
COC(=O)[C@H]1[C@H](/C=C\c2ccccc2)C1(C)C	21.9	15.6	10	12.5	7.5	7.5	37.4	12.5	50	12.5
COC(=O)[C@H]1[C@H](/C=C/c2ccccc2)C1(C)C	21.9	15.6	10	12.5	7.5	7.5	37.4	12.5	50	12.5
COC(=O)[C@H]1[C@H](/C=C\c2ccc([N+](=O)[O-])cc2)C1(C)C	67.5	10.9	0	27.5	20	20	24.3	0	45	42.5
COC(=O)[C@H]1[C@H](/C=C/c2ccc([N+](=O)[O-])cc2)C1(C)C	55	10	0	25	2.5	17.5	20	0	36.4	35
COC(=O)[C@H]1[C@H](/C=C\c2ccc(Br)cc2)C1(C)C	18.1	70	0	25	15	15	72.5	0	85	15.6
CC1(C)C(C=C(Cl)Cl)C1C(=O)OCc1cccc(Oc2ccccc2)c1 (stereo not given) [PERMETHRIN]	97.5	87.5	17.5	72.5	100	72.5	97.5	17.5	100	93.2
